Tests used:
[1] = system: KRAS G12V protein/effector signaling in SW620 cells; experiment: Cell-based pERK HTRF assay in SW620 cell; settings: Homo sapiens, SW-620, 1 h incubation
Experimental: pERK assay (Perkin Elmer) was used to determine the effectiveness of compounds in disrupting KRAS G12V protein/effector signaling in cells.
On Day 1, cells (SW620) were seeded into 96-well plates at 3×10^4 cells/well in 80 μL complete growth media (DMEM, 10% FBS).
(§1) On Day 2, cells were treated with compounds at 0.25% DMSO. The source plate was created with compounds diluted in media at 5-fold the final assay concentration. The compounds were run in a 9-point concentration curve starting at 10 μM, with a half-log dilution between concentrations. 20 μL was transferred onto the cell plates (final volume in wells was 100 μL). Plates were harvested after 1 h incubation by aspirating media and adding kit-supplied 1× supplemented lysis buffer to all wells (50 μL per well). Plates were then placed on a plate shaker and incubated at 850 rpm for an additional 30 min.
Antibody mixture solution was prepared by diluting aliquoted d2 and Eu Cryptate antibodies 1:20 in kit supplied detection buffer, and mixing the diluted antibodies solutions (1:1 v:v). Four μL of this solution was then added to a 384-well detection plate (Perkin Elmer; 6008230).
(§2) Samples were homogenized by pipetting up and down and then transferred (16 μL of cell lysates) from the 96-well cell culture plate to two wells of the HTRF 384-well detection plate containing the antibody solution. Plates were centrifuged (524 g for 1 min) and allowed to incubate between 4 and 24 h at room temperature. Maximum signal was reached after 4 h incubation time and remained stable over a period of 24 hours. Therefore, readings could be made between 4 and 24 h of incubation. Plates were centrifuged again (524 g for 1 min), then analyzed on the EnVision plate reader using the following settings: Excitation 320 nm, Bandwidth 75 nm; Emission 615 nm, Bandwidth 85 nm; Gain 100%; Flashes 100; Lag 60 μs.

[2] = target: T1, Avi-KRAS G12V (1-169) GppNHp/RAF1 RBD-3×FLAG (52-151) (Homo sapiens, UniProt P01116, G12V); experiment: Disrupting RAS-effector binding HTRF assay, Raf1 RBD-KRAS G12V-GppNHp; settings: PPI HTRF, 50 nM Avi-KRAS G12V GppNHp, compound titration 30-0.0045 μM; read-out: Raf1 RBD-KRAS G12V-GppNHp disruption
T1 construct: 50 nM Avi-KRAS G12V (1-169) GppNHp/RAF1 RBD-3×FLAG (52-151)
T1 sequence (P01116 1-169 isoform P01116-2 G12V limits assumed): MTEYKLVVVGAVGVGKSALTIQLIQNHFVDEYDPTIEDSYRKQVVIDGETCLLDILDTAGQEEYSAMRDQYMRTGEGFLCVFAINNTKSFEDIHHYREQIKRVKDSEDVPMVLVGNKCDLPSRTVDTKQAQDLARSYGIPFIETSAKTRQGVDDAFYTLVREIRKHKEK
Experimental: (§3) A protein:protein interaction (PPI) Homogeneous Time Resolved Fluorescence (HTRF) assay was used to determine the effectiveness of compounds of the present disclosure in disrupting KRAS protein and effector RAF1 binding.
(§4) The HTRF assay used the following reagents and proteins: (i) 50 nM Avi-KRAS G12D (1-169) GppNHp/RAF1 RBD-3×FLAG (52-151); (ii) 50 nM Avi-KRAS G12R (1-169) GppNHp/RAF1 RBD-3×FLAG (52-151); (iii) 50 nM Avi-KRAS G12V (1-169) GppNHp/RAF1 RBD-3×FLAG (52-151), (iv) 50 nM Avi-KRAS WT (1-169) GppNHp/RAF1 RBD-3×FLAG (52-151); and (v) 75 nM Avi-RAF1 RBD-3×FLAG. The assay buffer included: 50 mM Tris pH 7.5, 100 mM NaCl, 5 mM MgCl2, 0.1% BSA, […], 10% DMSO. The bead buffer included: 50 mM Tris pH 7.5, 0.01% o Tween 20. Assay volume of 20 μL was used in a 384 well plate-low volume format. Compound titration: 30-0.0045 μM, 3× dilution series.
(§5) The HTRF assay employed the following protocol:
(§6) Compounds were dispensed in assay plate (384-well, Grenier Bione #784075) using Echo (model 555) with dose response settings: 200 nL final volume, titration from 30 μM as a 10-point dilution series. Protein mix was prepared in assay buffer, and dispensed on plates, 10 μL per well, then incubated for 1 h at room temperature, with 700 rpm shaking. Reagents mix was prepared and dispensed on plates, 10 μL per well, then incubated for 1 h at room temperature, with 700 rpm shaking.
(§7) Plates were analyzed on an Envision plate reader using the following setting: Excitation 320 nm, Bandwidth 75 nM; Emission 615 nm, Bandwidth 85 nM, Gain 100%, Flashes 100, Lag 60 μs. Data were reported as percentage of activity, with DMSO as 100%. Data were plotted and analyzed using Prism 8.
(§8) The biochemical Raf1-KRAS G12D/G12R/G12V/WT-GppNHP disruption assay IC50 of selected compounds described herein are shown in Table 4.

[3] = target: T2, Avi-KRAS G12R (1-169) GppNHp/RAF1 RBD-3×FLAG (52-151) (Homo sapiens, UniProt P01116, G12R); experiment: Disrupting RAS-effector binding HTRF assay, Raf1 RBD-KRAS G12R-GppNHp; settings: PPI HTRF, 50 nM Avi-KRAS G12R GppNHp, compound titration 30-0.0045 μM; read-out: Raf1 RBD-KRAS G12R-GppNHp disruption
T2 construct: 50 nM Avi-KRAS G12R (1-169) GppNHp/RAF1 RBD-3×FLAG (52-151)
T2 sequence (P01116 1-169 isoform P01116-2 G12R limits assumed): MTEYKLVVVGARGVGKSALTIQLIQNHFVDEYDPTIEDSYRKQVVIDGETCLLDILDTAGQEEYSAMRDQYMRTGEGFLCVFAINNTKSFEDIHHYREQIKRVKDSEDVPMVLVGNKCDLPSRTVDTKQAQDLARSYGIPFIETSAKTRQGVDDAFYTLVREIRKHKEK
Experimental: as §3, §4, §5, §6, §7, §8

[4] = target: T3, Avi-KRAS WT (1-169) GppNHp/RAF1 RBD-3×FLAG (52-151) (Homo sapiens, UniProt P01116); experiment: Disrupting RAS-effector binding HTRF assay, Raf1 RBD-KRAS WT-GppNHp; settings: PPI HTRF, 50 nM Avi-KRAS WT GppNHp, compound titration 30-0.0045 μM; read-out: Raf1 RBD-KRAS WT-GppNHp disruption
T3 construct: 50 nM Avi-KRAS WT (1-169) GppNHp/RAF1 RBD-3×FLAG (52-151)
T3 sequence (P01116 1-169 isoform P01116-2 limits assumed): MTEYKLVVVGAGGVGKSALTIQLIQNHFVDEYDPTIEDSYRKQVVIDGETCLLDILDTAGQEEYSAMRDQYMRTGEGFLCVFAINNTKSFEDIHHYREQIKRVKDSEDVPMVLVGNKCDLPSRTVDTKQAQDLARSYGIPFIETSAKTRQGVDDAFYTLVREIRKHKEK
Experimental: as §3, §4, §5, §6, §7, §8

[5] = system: KRAS G12D protein/effector signaling in GP2d cells; experiment: Cell-based pERK HTRF assay in GP2d cell; settings: 1 h, 60 min incubation
Experimental: A pERK assay (Perkin Elmer) was used to determine the effectiveness of compounds in disrupting KRAS G12D protein/effector signaling in cells.
On Day 1, cells (GP2d) were seeded into 96-well plates at 3×10^4 cells/well in 80 μL complete growth media (DMEM, 10% FBS).
as §1, with “[…],” for “10 μM,”, “60 min” for “1 h”
Antibody mixture solution was prepared by diluting aliquoted d2 and Eu Cryptate antibodies 1:20 in kit supplied detection buffer, and mixing the diluted antibodies solutions (1:1 v:v). 4 μL of this solution was then added to a 384-well detection plate (Perkin Elmer; 6008230).
as §2

[6] = target: T4, Avi-KRAS G12D (1-169) GppNHp/RAF1 RBD-3×FLAG (52-151) (Homo sapiens, UniProt P01116, G12D); experiment: Disrupting RAS-effector binding HTRF assay, Raf1 RBD-KRAS G12D-GppNHp; settings: PPI HTRF, 50 nM Avi-KRAS G12D GppNHp, compound titration 30-0.0045 μM; read-out: Raf1 RBD-KRAS G12D-GppNHp disruption
T4 construct: 50 nM Avi-KRAS G12D (1-169) GppNHp/RAF1 RBD-3×FLAG (52-151)
T4 sequence (P01116 1-169 isoform P01116-2 G12D limits assumed): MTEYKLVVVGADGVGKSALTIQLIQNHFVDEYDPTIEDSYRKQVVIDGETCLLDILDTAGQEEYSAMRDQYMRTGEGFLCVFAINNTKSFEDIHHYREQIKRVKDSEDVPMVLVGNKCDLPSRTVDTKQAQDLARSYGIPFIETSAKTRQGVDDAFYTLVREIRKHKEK
Experimental: as §3, §4, §5, §6, §7, §8

Row | Structure (SMILES) | IC50 [1] [nM] | IC50 [2] [nM] | IC50 [3] [nM] | IC50 [4] [nM] | IC50 [5] [nM] | IC50 [6] [nM]
1 | N#Cc1c(N)sc2c(F)ccc(-c3c(C(F)(F)F)cc4c(N5CC6CCC(C5)N6)nc(OC[C@H](O)CO)nc4c3F)c12 [Compound 29] | 1000 to 10000 | 1000 to 10000 | 1000 to 10000 | 1000 to 10000 | ≤ 100 | 100 to 1000
2 | N#Cc1c(N)sc2c(F)ccc(-c3c(C(F)(F)F)cc4c(N5CC6CCC(C5)N6)nc(OCC5CCS(=O)(=O)CC5)nc4c3F)c12 [Compound 53] | > 10000 | 1000 to 10000 | > 10000 | 100 to 1000 | ≤ 100 | 100 to 1000
3 | N#Cc1c(N)sc2c(F)ccc(-c3c(C(F)(F)F)cc4c(N5CC6CCC(C5)N6)nc(OCCC5CCCO5)nc4c3F)c12 (stereo not drawn) [Compound 51] | > 10000 | > 10000 | > 10000 | 1000 to 10000 | ≤ 100 | 100 to 1000
4 | CN(c1nc(OCC2CCOCC2)nc2c(F)c(-c3ccc(F)c4sc(N)c(C#N)c34)c(C(F)(F)F)cc12)C1CCNCC1 [Compound 61] | > 10000 | > 10000 | > 10000 | > 10000 | > 1000 | 1000 to 10000
5 | CN1C[C@@H](COc2nc(N3CC4CCC(C3)N4)c3cc(C(F)(F)F)c(-c4ccc(F)c5sc(N)c(C#N)c45)c(F)c3n2)CC1=O [Compound 56] | > 10000 | 1000 to 10000 | 1000 to 10000 | 100 to 1000 | ≤ 100 | 100 to 1000
6 | N#Cc1c(N)sc2c(F)ccc(-c3c(C(F)(F)F)cc4c(N5CC6CCC(C5)N6)nc(O)nc4c3F)c12 [Compound 43] | > 10000 | > 10000 | > 10000 | > 10000 | > 1000 | > 10000
7 | CC(=O)Nc1nc(N2CC3CCC(C2)N3)c2cc(C(F)(F)F)c(-c3ccc(F)c4sc(N)c(C#N)c34)c(F)c2n1 [Compound 28] | > 10000 | > 10000 | > 10000 | > 10000 | ≤ 100 | 1000 to 10000
8 | N#Cc1c(N)sc2c(F)ccc(-c3c(C(F)(F)F)cc4c(N5CC6CCC(C5)N6)nc(OCCCO)nc4c3F)c12 [Compound 31] | > 10000 | > 10000 | > 10000 | 1000 to 10000 | ≤ 100 | 100 to 1000
9 | N#Cc1c(N)sc2c(F)ccc(-c3c(C(F)(F)F)cc4c(N5CC6CCC(C5)N6)nc(OCCC5CCOCC5)nc4c3F)c12 [Compound 46] | > 10000 | > 10000 | > 10000 | 1000 to 10000 | ≤ 100 | 100 to 1000
10 | CN(c1nc(OCC2CCOCC2)nc2c(F)c(-c3ccc(F)c4sc(N)c(C#N)c34)c(C(F)(F)F)cc12)[C@H]1CCCNC1 [Compound 63] | > 10000 | > 10000 | > 10000 | > 10000 | > 1000 | > 10000
11 | COc1c(Cl)c(-c2ccc(F)c3sc(N)c(C#N)c23)c(F)c2ncnc(N3CC4CCC(C3)N4)c12 [Compound 35] | > 10000 | > 10000 | > 10000 | > 10000 | 100 to 1000 | > 10000
12 | N#Cc1c(N)sc2c(F)ccc(-c3c(C(F)(F)F)cc4c(N5CC6CCC(C5)N6)nc(OC[C@H]5COCCO5)nc4c3F)c12 [Compound 40] | > 10000 | 1000 to 10000 | 1000 to 10000 | 100 to 1000 | ≤ 100 | 100 to 1000
13 | COCCCOc1nc(N2CC3CCC(C2)N3)c2cc(C(F)(F)F)c(-c3ccc(F)c4sc(N)c(C#N)c34)c(F)c2n1 [Compound 36] | > 10000 | > 10000 | > 10000 | 1000 to 10000 | ≤ 100 | 100 to 1000
14 | N#Cc1c(N)sc2c(F)ccc(-c3c(C(F)(F)F)cc4c(N5CC6CCC(C5)N6)nc(OC[C@@H](O)CO)nc4c3F)c12 [Compound 34] | > 10000 | 1000 to 10000 | > 10000 | 1000 to 10000 | 100 to 1000 | 100 to 1000
15 | N#CCCOc1nc(N2CC3CCC(C2)N3)c2cc(C(F)(F)F)c(-c3ccc(F)c4sc(N)c(C#N)c34)c(F)c2n1 [Compound 44] | > 10000 | > 10000 | > 10000 | 1000 to 10000 | ≤ 100 | 1000 to 10000
16 | N#Cc1c(N)sc2c(F)ccc(-c3c(C(F)(F)F)cc4c(N5CC6CCC(C5)N6)nc(OCC(CO)CO)nc4c3F)c12 [Compound 30] | > 10000 | 1000 to 10000 | 1000 to 10000 | 100 to 1000 | ≤ 100 | 100 to 1000
17 | CN1C(=O)CC[C@H]1COc1nc(N2CC3CCC(C2)N3)c2cc(C(F)(F)F)c(-c3ccc(F)c4sc(N)c(C#N)c34)c(F)c2n1 [Compound 54] | > 10000 | > 10000 | > 10000 | 1000 to 10000 | ≤ 100 | 100 to 1000

Source: patent US20260035376A1, “COMPOSITIONS AND METHODS FOR INHIBITION OF RAS” (TheRas, Inc., priority 2022, published 2026)
